# Values quoted from earlier work in patent US20170343557A1, “USE OF 5-METHOXYTRYPTOPHAN AS DIAGNOSTIC AGENT OF INFLAMMATORY DISEASES” (NATIONAL HEALTH RESEARCH INSTITUTES, priority 2014, published 2017).
# Tests used:
# [1] = tested on: COX-2 expression in fibroblasts and cancer cells
# [2] = tested on: cancer cell migration and invasion
# [3] = tested on: cancer metastasis in a xenograft model
structure (smiles),measurement,setting,value
"COc1ccc2[nH]cc(C[C@H](N)C(=O)O)c2c1 [5-MTP, 5-methoxytryptophan]",Proinflammatory mediator-induced COX-2 expression,[1],inhibits
same,Cancer cell migration and invasion,[2],reduces
same,Cancer metastasis,[3],reduces
